Laboratory results reported in patent US5324725A, “7-fused 2-(piperazinoalkyl) indole derivatives, intermediates and compositions thereof” (Kali-Chemie Pharma GmbH, priority 1991, dated 1994).

Tests used:
[1] = system: Passive cutaneous anaphylaxis (P.C.A.); experiment: Inhibition of passive cutaneous anaphylaxis (P.C.A.); assay type: in vivo, rat (Sprague-Dawley); details: Rattus norvegicus, 1 h; rats, 2 × 10^-5 mol/kg p.o., one hour before ovalbumin challenge
Protocol: (§1) 1. Determination of the inhibition of passive cutaneous anaphylaxis (P.C.A.) and of the anaphylactoid cutaneous reaction induced by histamine.
The P.C.A. reaction was carried out according to the methods described by Goose et al. (J.N. Immunology 16 (1969), 749) and by Martin et al (Arch. Pharmacol. 316 (1981), 186}.
The IgE-rich ovalbumin antiserum used in the test was obtained from immunized Brown-Norway rats. For immunization, the rats were given an i.p. injection of a mixture of 100 μg of ovalbumin with a Bordetella pertussis suspension (Vaxicoq®, Manufacturer: Institut Merieux, containing 5×10^9 organisms and 1.25 mg of Al(OH)3). After 20 days, the animals received a further i.p. injection of a solution of 10 μg of ovaIbumin in 0.5 ml of physiological saline solution for reimmunisation. After a further four days, the animals were bled, and the blood was centrifuged The antiserum obtained in this way was stored at -20° C. until use.
(§2) The determination of the inhibition of passive cutaneous anaphylaxis and the anaphylactoid cutaneous reaction induced by histamine was carried out as follows:
Sprague-Dawley rats having a body weight of 150-180 g were injected intradermally in one flank with 50 μl of a 1:75 dilution of the IgE-rich ovalbumin antiserum in physiological sodium chloride solution for passive sensitization to ovalbumin.
24 hours after sensitization a solution of 8.25 mg/kg of ovalbumin and 26.4 mg/kg of a blue dye (Evans' Blue) was administered i.v. to the rats according to Martin et al. to induce passive cutaneous anaphylaxis. The ovalbumin challenge caused a local anaphylactic reaction at the site at which the antiserum had been injected.
(§3) On the test days, the test substances were dissolved in distilled water which contained 1% by volume of dimethylformamide and 1% by volume of Tween®20 (polyoxyethylene(20) sorbitan monolaurate). One hour before the challenging ovalbumin administration, each animal received 2×10^-5 mol/kg of test substance administered orally in 0.5 ml of solution. A control group received only the solvent for comparison.
(§4) The oedematous anaphylactic (P.C.A.) and anaphylactoid (histamine-induced) reactions caused by the challenging i.v. ovalbumin injection, which are manifested by oedema formation, swelling and exudation of blue dye, were evaluated 30 minutes after challenge by the i.v. ovalbumin injection. This was done by visual determination of the extent to which the blue dye emerges at the sites of oedema formation. The percentage inhibition of anaphylactic and anaphylactoid reactions caused by the test substances was determined in comparison with the reactions of the control animals not treated with test substance with the aid of comparison scales.
(§5) The results obtained by the above test methods using compounds of the formula I are shown in the following Table A. The example numbers given for the compounds of formula I relate to the following preparation examples.

[2] = system: Histamine-induced anaphylactoid reactions; experiment: Inhibition of anaphylactoid cutaneous reaction induced by histamine; assay type: in vivo, rat (Sprague-Dawley); details: Rattus norvegicus, 1 h; rats, 2 × 10^-5 mol/kg p.o., one hour before challenge; histamine intradermal
Protocol: as §1, §2
To determine the histamine-induced anaphylactoid skin reaction, the animals were injected intradermally in the flank opposite to the antiserum administration with 50 μl of a physiological saline solution containing 0.8 mg/ml of histamine directly before the i.v. injection of the solution containing the ovalbumin and the blue dye.
as §3, §4, §5

[3] = Determination of the minimum toxic dose; design: species or system male mice; details: mouse, in vivo, po, 300 mg/kg, 1440 min
Protocol: 2. Determination of the minimum toxic dose.
Maximum doses of 300 mg/kg of the test substance were administered orally to male mice weighing 20-25 g. The animals were observed carefully for 3 hours for toxicity symptoms. In addition, all symptoms and deaths over a period of 24 hours after administration were recorded. Associated symptoms were also observed and recorded. If death or severe toxic symptoms were observed, further mice were administered increasingly lower doses. The lowest dose which caused death or severe toxic symptoms is given as the minimum toxic dose in the following Table B.

[4] = system: P.A.F.-induced aggregation of platelets from rabbit blood; experiment: Anti-P.A.F. effect in vitro: inhibition of P.A.F.-induced platelet aggregation; assay type: cell-based, rabbit (New Zealand hybrids); details: Oryctolagus cuniculus, Platelet, test substance concentration 10^-5 mol/l
Description: 4. Determination of anti-P.A.F. effect in vitro.
Platelet-activating factor (P.A.F.) is a phospholipid mediator which has several effects. The activation of platelet aggregation leads to the induction of protracted broncho contractions and hyperreactivity of the airways.
The effects of the test substances on platelet aggregation induced by adding P.A.F. to a platelet suspension obtained from rabbit blood was investigated by the method described by Mikashima et al. (Jap. J. Pharmacol. 44 (1987) 387-391).
A suspension of platelets originating from rabbit blood was used which contained 4×10^9 platelets/ml in a modified Tyrode buffer solution adjusted to pH 7.4. Tyrode solution is an aqueous solution containing 136.9 mmol of NaCl, 2.68 mmol of KCl, 2.31 mmol of CaCl2, 1.0 mmol of MgCl2, 11.9 mmol of NaHCO3, 1.45 mmol of NaH2 PO4 and 5.55 mmol of glucose per liter. This solution was modified by adding 1.3 mM/l of CaCl2 and 2.5 g/l of gelatin. The platelets were obtained from 10 ml blood samples from each of three rabbits (New Zealand hybrids, body weight 3-4 kg). For this, the blood samples were treated with ethylenediaminetetraacetic acid and washed by the method of Artley et al. (Brit. J. Hamatol. 19 (1970), 7-17). A platelet-rich plasma was then initially separated by centrifugation (20 minutes at 400×g). The platelets were separated from the plasma by centrifuging again for 15 minutes at 1400×g. After centrifuging, the platelets remaining as a sediment were resuspended in a calcium-free Tyrode buffer solution. 0.4 mmol of lysine acetylsalicylate were then added and after 15 minutes the blood platelets were sedimented again. The sediment was resuspended in the abovementioned modified Tyrode buffer solution, and the number of platelets in the resulting suspension was adjusted to the desired content.
A 40×10^-9 molar P.A.F. solution was used as the reagent. This solution was prepared from a 1.8×10^-3 molar stock solution in chloroform. For this, a 10μl sample of the stock solution was evaporated to dryness and redissolved in 180 μl of the modified Tyrode solution, to which 0.25% of dilapidated bovine serum albumin had been added. 10^-5 molar working solutions were then prepared from this and stored frozen. Samples of these solutions were appropriately diluted for the tests.
To carry out the tests, 50 μl of the platelet solution and 10 μl of a 40×10^-5 molar solution of the compound to be investigated were added to 330 μl of the modified Tyrode buffer solution with stirring (1000 rpm) in an aggregation tube provided with a small magnetic stirrer. This corresponds to a final test substance concentration of 10^-5 mol/l. After a preincubation time of 90seconds, 10 μl of the P.A.F. preparation were added. The aggregation occurring in the aggregation tubes was measured for 4-5 minutes using a computerized aggregometer.
The aggregation occurring in the test tubes containing only platelet suspension was rated as 0%. The aggregation occurring in test tubes containing platelet suspension and P.A.F. preparation was rated as 100%. The aggregation which still occurred in the presence of the test substances (i.e. during inhibition of the P.A.F.-induced platelet aggregation increase) was measured, and the resulting aggregation inhibition is calculated from this in %.

[5] = target: T1, cyclooxygenase (Mus musculus, UniProt P22437); experiment: Cyclooxygenase inhibition: release of 6-keto-PGF1 α from zymosan-stimulated mouse peritoneal macrophage cells; assay type: cell-based; details: 10^-5 mol/l, read-out: In vitro % inhibition effect on the release of 6-keto-PGF1 α
T1 construct: A cell suspension containing peritoneal cells of male mice 8-10 weeks old was obtained; endogenous in cells; host or cells: mouse peritoneal macrophages (male mice 8-10 weeks old), zymosan-stimulated
T1 sequence (P22437 27-602): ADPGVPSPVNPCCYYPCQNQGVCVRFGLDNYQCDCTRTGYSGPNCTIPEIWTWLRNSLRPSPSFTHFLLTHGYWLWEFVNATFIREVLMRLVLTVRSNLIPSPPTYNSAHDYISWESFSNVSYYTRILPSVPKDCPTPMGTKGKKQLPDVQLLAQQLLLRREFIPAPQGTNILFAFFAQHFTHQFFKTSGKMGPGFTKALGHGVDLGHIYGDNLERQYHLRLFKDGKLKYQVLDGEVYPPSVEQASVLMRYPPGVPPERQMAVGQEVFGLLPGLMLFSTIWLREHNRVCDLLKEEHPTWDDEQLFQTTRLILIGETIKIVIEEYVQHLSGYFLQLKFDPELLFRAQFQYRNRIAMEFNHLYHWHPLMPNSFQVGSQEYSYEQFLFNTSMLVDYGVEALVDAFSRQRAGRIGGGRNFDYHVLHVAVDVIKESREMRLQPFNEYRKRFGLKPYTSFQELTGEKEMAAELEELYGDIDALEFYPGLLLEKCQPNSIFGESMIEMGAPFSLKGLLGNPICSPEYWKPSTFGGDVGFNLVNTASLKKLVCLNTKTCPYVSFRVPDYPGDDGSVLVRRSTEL
Description: (§6) 5. In vitro determination of cyclooxygenase inhibition and 5-lipoxygenase inhibition.
(§7) After activation of the cell, arachidonic acid contained in cell membranes is metabolized in two ways. Leukotrienes, inter alia leukotriene C4, are formed under the action of the enzyme 5-lipoxygenase (5-LO), and prostanoids are formed under the action of the enzyme cyclooxygenase (CO). In in vitro systems, the metabolites are secreted from the cell.
(§8) To investigate the cyclooxygenase-inhibiting and the 5-lipoxygenase-inhibiting properties, the inhibitory effect of the test substances on the biosynthesis of the arachidonic acid derivatives leukotriene C4 (LTC4) and 6-ketoprostaglandin F1 α (6-keto-PGF1 α) is determined in vitro on mouse peritoneal macrophage cells. This was accomplished by determining the LTC4 and 6-keto-PGF1 α contents in a culture medium of mouse peritoneal macrophage cells by zymosan stimulation as described by Scott et al. (J. Exp. Med. 152 (1980), 324-335) and by Fradin et al. (Prostaglandins, 33 (1987), 579-589).
(§9) A cell suspension containing peritoneal cells of male mice 8-10 weeks old was obtained in a known manner. A commercially available cell culture solution (RPMI 1640 from Messrs. Gibco) was used to which heparin (I0 international units/ml) and antibiotics were added according to the recipe of Bonney et al. (Biochem. J. 176 (1978) 422-433). The cell suspension was adjusted to a cell concentration of 10^6 cells per ml and distributed uniformly on titer plates containing […] (wells). These were kept for two hours in a humidified incubator filled with air enriched with 7% CO2. Cells not adhering to the titer cell walls were then removed by washing. The remaining macrophage cells adhering to the walls were incubated for about 12 hours in a suspension medium to which 0.1% bovine serum albumin (BSA) were added. The suspension medium was then replaced by a Hanks balanced salt solution (HBSS) containing 10 mM Hepes (hydroxyethyl-piperazinoethanesulfonic acid), to which a 0.1% strength solution of the test substances in aqueous, 1% strength dimethylformamide or only the solvent had been added. After 15 minutes the arachidonic acid metabolism was stimulated by adding 10 particles of zymosan (=glycoproteinmixture, isolated from cell walls of beer yeast, Saccharomyces cerevisiae, manufactured by Sigma Chemical Co., Munich) per titer cell. After 2 hours, samples of each of the supernatant liquids were investigated for their 6-keto-PGF1 α and LTC4 contents by means of an enzyme immunoassay (EIA) carried out by the method of Pradelles et al. (Analytical Chem. 57 (1985), 1170-1173). The determination of LTC4 and the determination of 6-keto-PGF1 α were each carried out in comparison with a comparative scale on suitable dilutions of the samples (1:50 to 1:250 for the LTC4 determination and 1:250 to 1:1250 for the 6-keto-PGF1 α determination). To determine the inhibitory effect of a 10^-5 molar concentration of the compounds, the amount of reference eicosanoids was determined and the inhibitory effect was calculated from this in % inhibition compared to the measurements of the zymosan controls.

[6] = target: T2, 5-lipoxygenase (Mus musculus, UniProt P48999); experiment: 5-lipoxygenase inhibition: release of LTC4 from zymosan-stimulated mouse peritoneal macrophage cells; assay type: cell-based; details: 10^-5 mol/l, read-out: In vitro % inhibition effect on the release of LTC4
T2 construct: A cell suspension containing peritoneal cells of male mice 8-10 weeks old was obtained; endogenous in cells; host or cells: mouse peritoneal macrophages (male mice 8-10 weeks old), zymosan-stimulated
T2 sequence (P48999 1-674): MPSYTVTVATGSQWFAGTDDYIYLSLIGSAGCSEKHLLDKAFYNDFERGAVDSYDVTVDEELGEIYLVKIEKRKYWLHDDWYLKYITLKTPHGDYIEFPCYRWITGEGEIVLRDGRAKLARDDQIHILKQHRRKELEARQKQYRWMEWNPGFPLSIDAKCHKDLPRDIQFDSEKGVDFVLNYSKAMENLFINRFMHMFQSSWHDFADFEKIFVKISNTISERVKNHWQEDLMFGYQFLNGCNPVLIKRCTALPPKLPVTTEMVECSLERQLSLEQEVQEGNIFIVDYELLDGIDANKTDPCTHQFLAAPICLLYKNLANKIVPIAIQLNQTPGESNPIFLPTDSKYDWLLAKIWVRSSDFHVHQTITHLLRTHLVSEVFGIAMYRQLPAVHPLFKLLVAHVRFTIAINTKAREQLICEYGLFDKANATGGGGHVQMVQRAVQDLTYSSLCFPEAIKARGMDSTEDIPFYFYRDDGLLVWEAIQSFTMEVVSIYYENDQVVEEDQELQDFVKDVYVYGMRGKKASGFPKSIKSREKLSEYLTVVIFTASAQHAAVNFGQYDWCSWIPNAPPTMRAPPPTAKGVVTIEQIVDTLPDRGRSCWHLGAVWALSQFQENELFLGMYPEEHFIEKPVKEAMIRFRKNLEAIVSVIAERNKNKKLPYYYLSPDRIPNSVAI
Description: as §6, §7, §8, §9

Structure (SMILES) | inhibition in vivo at 20 µmol/kg [1] [%] | inhibition in vivo at 20 µmol/kg [2] [%] | Minimum toxic dose (lowest dose which caused death or severe toxic symptoms) [3] [mg/kg] | inhibition at 10 µM [4] [%] | inhibition at 10 µM [5] [%] | inhibition at 10 µM [6] [%]
Cc1c(CCN2CCC(C(=O)c3ccccc3)CC2)c2cccc3c2n1CCC3C (stereo not drawn) [Example 56] | 80 | 50 | 300 | 42 |  | 
Cc1ccnc(N2CCN(CCc3c(C)n4c5c(cc(CC6CCCCC6)cc35)CCC4)CC2)c1 [Example 84] |  |  |  |  | 46 | 20
Cc1ccnc(N2CCN(CCc3c(C)n4c5c(cc(C(=O)c6ccc(Cl)cc6)cc35)CCC4)CC2)c1 [Example 82] |  |  |  |  | 58 | 9
Cc1ccnc(N2CCN(CCc3c(-c4ccccc4)n4c5c(cccc35)CCC4)CC2)c1 [Example 40] | 70 | 43 | 300 | 100 |  | 
